Values of other authors, collected in US20060052437A1, “Combination of an hmg-coa reductase inhibitor and a nitrate ester” (priority 2002, published 2006).

Legend:
[1] = compared to aspirin
[2] = at withdrawal from the market, August 2001

SMILES	toxicity at gastric level [1]	deaths attributable to rhabdomyolysis [2] [deaths]
CC(=O)Oc1ccccc1C(=O)Oc1cccc(CO[N+](=O)[O-])c1 [NCX-4016, 2-acetyloxy-benzoic acid 3-nitroxymethyl-phenyl ester]	not toxic at gastric level	
COCc1c(C(C)C)nc(C(C)C)c(/C=C/[C@@H](O)C[C@@H](O)CC(=O)O)c1-c1ccc(F)cc1 [cerivastatin]		52
